Experimental data taken from US20080222745A1, “Colcemid-Treatment of Oocytes to enhance Nuclear Transfer Cloning” (Utah State University, priority 2007, published 2008).
“And” between values parts separate entries of the source, which are not always exact repeats. Identical values can stand only once. “Also recorded” adds a separate entry of the source. Like-named read-outs stand apart in the source and are kept apart here. Marks after values point to notes of the source that are not given here.

What was measured:
bovine oocytes [1] = test: Membrane projections of bovine oocytes after colcemid treatment; assay type: cell-based; conditions: for oocytes exhibiting an obvious membrane projection: colcemid treatment for 2 to 4 hr
bovine NT blastocysts = test: Chromosomal analysis and cell number count of Day 7 NT blastocysts; assay type: cell-based; conditions: for No. cells blastocysts (mean ± SD): oocytes matured 16-17 hours, 0.2 μg/ml for 2-3 hours; for Cell number of blastocysts (mean ± SD): 0.2 μg/ml for 2-3 hr
Description: Day 7 blastocysts were prepared and examined for their cytogenetic composition and the number of nuclei contained was verified. […] Chromosomes were examined at 1000× under a Zeiss microscope, and the chromosome composition was determined for each blastocyst.

[2] = system: NT embryos transferred to recipient cows; test: Pregnancy rates after transfer of NT embryos to recipient cows; assay type: in vivo, bovine
Text: FIG. 1 is a diagram showing pregnancy rates throughout gestation following transfer of NT embryos derived from colcemid-treated versus untreated heifer cytoplasts. […] Six to seven days after NT, morulae and blastocysts were transferred to recipient cows. The solid bars show pregnancy rates for nuclear transfer embryos generated from heifer oocytes which were not treated with colcemid.
The day 6-7 morulae and blastocysts were selected and transferred to recipient cows. A total of 191 recipient cows were used for embryo transfer. Forty cows received embryos from colcemid-treated oocytes and 151 cows received embryos from non-treated oocytes. Pregnancy rates were monitored throughout gestation.

bovine oocytes [3] = conditions: colcemid vs control, 15-22 hr maturation
Description: Oocytes were vortexed in 1 ml PB1+ containing 10 mg/ml hyaluronidase for 4 minutes to completely remove cumulus cells. Oocytes of good quality were selected for use. Oocytes were loaded with Ca^2+ indicator by incubation in 2 μM Fura-2 AM ester (Molecular Probes, Eugene, Oreg.) and 0.02% Pluronic F-127 (Molecular Probes) in Ca^2+- and Mg^2+-free phosphate buffered saline (Hyclone Laboratories) containing 0.32 mM sodium pyruvate, 5.55 mM glucose, 3 mg/ml BSA, and 100 μM EGTA at 39° C. in darkness for 45 min. After loading with indicator, oocytes were washed extensively with PB1+ (phosphate-buffered saline with Ca^2+ and Mg^2+ plus 5.55 mM glucose, 0.32 mM sodium pyruvate, 3 mg/ml BSA) and maintained in this solution at 39° C. until use.
Fura-2 loaded oocytes were transferred to a 50-μl drop of PB1+ medium covered with mineral oil.

CN[C@H]1CCc2cc(OC)c(OC)c(OC)c2-c2ccc(OC)c(=O)cc21 [colcemid, N-deacetyl-N-methylcolchicine]
No. oocytes with blebs or Pb1 + bleb (%) (bovine oocytes [1]; oocytes with PB1 matured 16-17 hr, 0.2 μg/ml for 2 h, 26 of 36 oocytes): 26 (72.2) % | No. oocytes with blebs or Pb1 + bleb (%) (bovine oocytes [1]; oocytes with PB1 matured 16-17 hr, 0.2 μg/ml for 4 h, 31 of 39 oocytes): 31 (79.5) % | No. oocytes with blebs or Pb1 + bleb (%) (bovine oocytes [1]; oocytes with PB1 matured 16-17 hr, 0.4 μg/ml for 2 h, 29 of 38 oocytes): 29 (76.3) % | No. oocytes with blebs or Pb1 + bleb (%) (bovine oocytes [1]; oocytes with PB1 matured 16-17 hr, 0.4 μg/ml for 4 h, 28 of 38 oocytes): 28 (73.6) % | oocytes exhibiting an obvious membrane projection (bovine oocytes [1]; oocytes with PB1 matured 16-17 hr): approximately 80% | No. oocytes with blebs or Pb1 + bleb (%) (bovine oocytes [1]; oocytes without PB1 matured 16-17 hr, 0.1 μg/ml for 1 h, 32 of 46 oocytes): 32 (69.6) % | No. oocytes with blebs or Pb1 + bleb (%) (bovine oocytes [1]; oocytes without PB1 matured 16-17 hr, 0.1 μg/ml for 2 h, 39 of 48 oocytes): 39 (81.2) % | No. oocytes with blebs or Pb1 + bleb (%) (bovine oocytes [1]; oocytes without PB1 matured 16-17 hr, 0.1 μg/ml for 4 h, 43 of 46 oocytes): 43 (93.4) % | No. oocytes with blebs or Pb1 + bleb (%) (bovine oocytes [1]; oocytes without PB1 matured 16-17 hr, 0.2 μg/ml for 2 h, 33 of 42 oocytes): 33 (78.6) % | No. oocytes with blebs or Pb1 + bleb (%) (bovine oocytes [1]; oocytes without PB1 matured 16-17 hr, 0.2 μg/ml for 4 h, 38 of 42 oocytes): 38 (90.5) % | No. oocytes with blebs or Pb1 + bleb (%) (bovine oocytes [1]; oocytes without PB1 matured 16-17 hr, 0.4 μg/ml for 2 h, 35 of 43 oocytes): 35 (81.3) % | No. oocytes with blebs or Pb1 + bleb (%) (bovine oocytes [1]; oocytes without PB1 matured 16-17 hr, 0.4 μg/ml for 4 h, 34 of 41 oocytes): 34 (82.9) % | oocytes exhibiting an obvious membrane projection (bovine oocytes [1]; oocytes without PB1 matured 16-17 hr): 80-93% | Cell numbers of blastocysts vs control groups (bovine NT blastocysts; colcemid-treated groups vs control groups): numerically higher; also recorded: numerical higher | No. cells blastocysts (mean ± SD) (bovine NT blastocysts; culture system BCR): 50.3 ± 7.6^c | No. cells blastocysts (mean ± SD) (bovine NT blastocysts; culture system SCR and co-culture): 107.8 ± 21.6^a | No. cells blastocysts (mean ± SD) (bovine NT blastocysts; culture system SCR): 70.5 ± 7.8^b | cell number of blastocysts vs untreated (bovine NT blastocysts; embryos cultured in SCR and BCR systems): increased | Cell number of blastocysts (mean ± SD) (bovine NT blastocysts; oocytes matured 14-15 hr, without PB1): 113 ± 10 | Cell number of blastocysts (mean ± SD) (bovine NT blastocysts; oocytes matured 16-17 hr, with PB1): 103 ± 20 | Cell number of blastocysts (mean ± SD) (bovine NT blastocysts; oocytes matured 16-17 hr, without PB1): 118 ± 17 | Cell number of blastocysts (mean ± SD) (bovine NT blastocysts; oocytes matured 19-20 hr, with PB1): 91 ± 9 | Cell number of blastocysts (mean ± SD) (bovine NT blastocysts; oocytes matured 19-20 hr, without PB1): 107 ± 11 | term rate ([2]; MI heifer oocytes matured 16-17 hr, 0.2 or 0.4 μg/ml colcemid 2-3 hr, 40 recipient cows, non-treated group 3.3%): 12.5% | pregnancy rates vs non-treated group ([2]; at 60, 90, 180 days, P<0.05): Higher | Blastocyst (%) (bovine NT embryos; Table 3: oocytes matured 16-17 hr, 0.2 μg/ml for 2-3 h, 38 of 90 embryos cultured): 38 (42.2)^a % | Morula (%) (bovine NT embryos; Table 3: oocytes matured 16-17 hr, 0.2 μg/ml for 2-3 h, 44 of 90 embryos cultured): 44 (48.9)^a % | 2-cell (%) (bovine NT embryos; Table 3: oocytes matured 16-17 hr, 0.2 μg/ml for 2-3 h, 76 of 90 embryos cultured): 76 (84.4) % | cleavage of NT embryos (bovine NT embryos; among treatment groups, vs controls, 0.2 μg/ml for 2-3 hr): no difference | rate of hatched blastocysts vs untreated groups (bovine NT embryos; colcemid groups vs untreated groups): much higher | rate of morula and blastocyst development vs untreated groups (bovine NT embryos; culture in SCR or BCR media): improved | Blastocyst (%) (bovine NT embryos; culture system BCR, oocytes matured 16-17 hours, 0.2 μg/ml for 2-3 hours, 20 of 110 cloned embryos, 5% CO2 in air): 18.6% and 20 (18.2)^c % | Morula (%) (bovine NT embryos; culture system BCR, oocytes matured 16-17 hours, 0.2 μg/ml for 2-3 hours, 27 of 110 cloned embryos): 27 (24.5)^b % | 2-cell (%) (bovine NT embryos; culture system BCR, oocytes matured 16-17 hours, 0.2 μg/ml for 2-3 hours, 81 of 110 cloned embryos): 81 (73.6) % | Hatched blastocyst (%) (bovine NT embryos; culture system BCR, oocytes matured 16-17 hours, 0.2 μg/ml for 2-3 hours, 110 cloned embryos): 0% | Hatched blastocyst (%) (bovine NT embryos; culture system SCR and co-culture, oocytes matured 16-17 hours, 0.2 μg/ml for 2-3 hours, 19 of 86 cloned embryos): 19 (22.0)^a % | Blastocyst (%) (bovine NT embryos; culture system SCR and co-culture, oocytes matured 16-17 hours, 0.2 μg/ml for 2-3 hours, 34 of 86 cloned embryos): 39.5% and 34 (39.5)^a % | Morula (%) (bovine NT embryos; culture system SCR and co-culture, oocytes matured 16-17 hours, 0.2 μg/ml for 2-3 hours, 42 of 86 cloned embryos): 42 (48.8)^a % | 2-cell (%) (bovine NT embryos; culture system SCR and co-culture, oocytes matured 16-17 hours, 0.2 μg/ml for 2-3 hours, 74 of 86 cloned embryos): 74 (86.0) % | Hatched blastocyst (%) (bovine NT embryos; culture system SCR, oocytes matured 16-17 hours, 0.2 μg/ml for 2-3 hours, 5 of 135 cloned embryos): 5 (3.7)^b % | Blastocyst (%) (bovine NT embryos; culture system SCR, oocytes matured 16-17 hours, 0.2 μg/ml for 2-3 hours, 31 of 135 cloned embryos): 31 (23.0)^b % | Morula (%) (bovine NT embryos; culture system SCR, oocytes matured 16-17 hours, 0.2 μg/ml for 2-3 hours, 41 of 135 cloned embryos): 41 (30.3)^b % | 2-cell (%) (bovine NT embryos; culture system SCR, oocytes matured 16-17 hours, 0.2 μg/ml for 2-3 hours, 96 of 135 cloned embryos): 96 (71.1) % | Hatching Blastocyst (%) (bovine NT embryos; oocytes matured 14-15 hr, without PB1, 0.2 μg/ml for 2-3 hr, 26 of 100 embryos cultured): 26 (26)^a % | Blastocyst (%) (bovine NT embryos; oocytes matured 14-15 hr, without PB1, 0.2 μg/ml for 2-3 hr, 40 of 100 embryos cultured): 40% and 40 (40)^a % | Morula (%) (bovine NT embryos; oocytes matured 14-15 hr, without PB1, 0.2 μg/ml for 2-3 hr, 48 of 100 embryos cultured): 48 (48) % | 2-cell (%) (bovine NT embryos; oocytes matured 14-15 hr, without PB1, 0.2 μg/ml for 2-3 hr, 85 of 100 embryos cultured): 85 (85) % | Hatching Blastocyst (%) (bovine NT embryos; oocytes matured 16-17 hr, with PB1, 0.2 μg/ml for 2-3 hr, 21 of 81 embryos cultured): 21 (25.9)^a % | Blastocyst (%) (bovine NT embryos; oocytes matured 16-17 hr, with PB1, 0.2 μg/ml for 2-3 hr, 36 of 81 embryos cultured): 44.4% and 36 (44.4)^a % | Morula (%) (bovine NT embryos; oocytes matured 16-17 hr, with PB1, 0.2 μg/ml for 2-3 hr, 45 of 81 embryos cultured): 45 (55.6) % | 2-cell (%) (bovine NT embryos; oocytes matured 16-17 hr, with PB1, 0.2 μg/ml for 2-3 hr, 69 of 81 embryos cultured): 69 (85.2) % | Hatching Blastocyst (%) (bovine NT embryos; oocytes matured 16-17 hr, without PB1, 0.2 μg/ml for 2-3 hr, 22 of 90 embryos cultured): 22 (24.2)^a % | Blastocyst (%) (bovine NT embryos; oocytes matured 16-17 hr, without PB1, 0.2 μg/ml for 2-3 hr, 38 of 90 embryos cultured): 42.2% and 38 (42.2)^a % | Morula (%) (bovine NT embryos; oocytes matured 16-17 hr, without PB1, 0.2 μg/ml for 2-3 hr, 44 of 90 embryos cultured): 44 (48.9) % | 2-cell (%) (bovine NT embryos; oocytes matured 16-17 hr, without PB1, 0.2 μg/ml for 2-3 hr, 76 of 90 embryos cultured): 76 (84.4) % | Blastocyst (%) (bovine NT embryos; oocytes matured 16-17 hr, 0.2 μg/ml for 5-6 h, 32 of 76 embryos cultured): 32 (42.1)^a % | Morula (%) (bovine NT embryos; oocytes matured 16-17 hr, 0.2 μg/ml for 5-6 h, 37 of 76 embryos cultured): 37 (48.7)^a % | 2-cell (%) (bovine NT embryos; oocytes matured 16-17 hr, 0.2 μg/ml for 5-6 h, 69 of 76 embryos cultured): 69 (90.8) % | Blastocyst (%) (bovine NT embryos; oocytes matured 16-17 hr, 0.4 μg/ml for 2-3 h, 32 of 73 embryos cultured): 32 (43.8)^a % | Morula (%) (bovine NT embryos; oocytes matured 16-17 hr, 0.4 μg/ml for 2-3 h, 37 of 73 embryos cultured): 37 (50.7)^a % | 2-cell (%) (bovine NT embryos; oocytes matured 16-17 hr, 0.4 μg/ml for 2-3 h, 66 of 73 embryos cultured): 66 (90.4) % | Blastocyst (%) (bovine NT embryos; oocytes matured 16-17 hr, 0.4 μg/ml for 5-6 h, 31 of 81 embryos cultured): 31 (38.8)^a % | Morula (%) (bovine NT embryos; oocytes matured 16-17 hr, 0.4 μg/ml for 5-6 h, 39 of 81 embryos cultured): 39 (48.1)^a % | 2-cell (%) (bovine NT embryos; oocytes matured 16-17 hr, 0.4 μg/ml for 5-6 h, 66 of 81 embryos cultured): 66 (81.5) % | Blastocyst (%) (bovine NT embryos; oocytes matured 19-20 hr, with PB1, 0.2 μg/ml for 2-3 hr, 30 of 107 embryos cultured): 30 (28.0)^b % | Morula (%) (bovine NT embryos; oocytes matured 19-20 hr, with PB1, 0.2 μg/ml for 2-3 hr, 38 of 107 embryos cultured): 38 (35.5) % | 2-cell (%) (bovine NT embryos; oocytes matured 19-20 hr, with PB1, 0.2 μg/ml for 2-3 hr, 88 of 107 embryos cultured): 88 (82.2) % | Hatching Blastocyst (%) (bovine NT embryos; oocytes matured 19-20 hr, with PB1, 0.2 μg/ml for 2-3 hr, printed count 6, 107 embryos cultured): 6 (15.0)^b % | Hatching Blastocyst (%) (bovine NT embryos; oocytes matured 19-20 hr, without PB1, 0.2 μg/ml for 2-3 hr, 14 of 66 embryos cultured): 14 (21.2)^a % | Blastocyst (%) (bovine NT embryos; oocytes matured 19-20 hr, without PB1, 0.2 μg/ml for 2-3 hr, 25 of 66 embryos cultured): 38% and 25 (37.9)^a % | Morula (%) (bovine NT embryos; oocytes matured 19-20 hr, without PB1, 0.2 μg/ml for 2-3 hr, 32 of 66 embryos cultured): 32 (48.5) % | 2-cell (%) (bovine NT embryos; oocytes matured 19-20 hr, without PB1, 0.2 μg/ml for 2-3 hr, 56 of 66 embryos cultured): 56 (84.8) % | average blastocyst development rate (bovine NT embryos; under 5% CO2 in air, especially oocytes matured for 14 to 17 hr and treated with colcemid): over 40% | intracellular calcium transients, trend between treatments (bovine oocytes [3]): No trend
